Here are results for 10 compounds from patent US20210130411A1, “CYCLIC HEXAPEPTIDES COMPOUNDS WITH ANTI-MALARIAL ACTIVITY” (priority 2018, published 2021).

The structures appear in SMILES notation. Like-named read-outs stand apart in the source and are kept apart here. Where a SMILES comes first, the peptide text is derived from it. [ ]: non-standard residue; d: D form. The star is where a group is joined. Trt = c1ccc(C(c2ccccc2)(c2ccccc2)*)cc1; Sar = CNCC(=O)O; tBu = CC(C)(C)* A value given as a limit tells only on which side of the number the result lay.

The subject of data set [1] is Plasmodium falciparum 3D7 (chloroquine-sensitive strain). Nature of the data set: microbe, parasite or virus in culture. In kind it is cell-based. As to the method: For the in vitro study of the antimalarial activity against P. falciparum D7, two stock solutions were prepared: solution A (dilution of powder sample) at 20 mM and solution B at 1 mM (made by dilution of solution A). Next, the compounds were diluted 100-fold (drug solution=10 μM), then, suitable volume of drug solution was transferred in the SYBR GREEN assay plate (final concentration=10-0.15 μM). However, due to the high potency of the samples, the initial concentration was reduced in order to determine the EC50 values. The assay condition included: hematocrit at 2%, initial parasitemia 0.5% and artesunate and pyrimethamine were used as positive control. The fluorescence of each well is measured. The EC50 value of each compound was assessed in at least two independent experiments.
(§1) were tested in vitro against the intraerythrocytic form of the parasite Plasmodium falciparum K1 (chloroquine-resistant strain) and Plasmodium falciparum 31D7 (chloroquine-sensitive strain). The selectivity index (SI) was determined as the ration between EC50 against murine macrophages or HepG2 cells and the EC50 against P. falciparum. In the following Table 1 is shown the results of the EC50 obtained for each of the tested compounds against P. falciparum K1 (P. f. K1) and P. falciparum 3D7 (P. f. 3D7) and the SI calculated.

The subject of data set [2] is P. falciparum 3D7 strain. Nature of the data set: Killing rates assay, P. falciparum 3D7 intraerythrocytic form. In kind it is cell-based, Plasmodium falciparum. How it is done:
The assay was performed in P. falciparum 3D7 strain in its intraerythrocytic form. […] Each compound was renewed (washing the parasites and adding culture media and the compound again) after the first 24 hours of treatment.

Data set [3] deals with P. falciparum K1 (chloroquine-resistant strain). Kind of data set: microbe, parasite or virus in culture. As to the method:
For the in vitro study of the antimalarial activity against P. falciparum K1, this strain originating from Thailand that is resistant to chloroquine and pyrimethamine but sensitive to mefloquine was used. The cultures are naturally asynchronous (65-75% ring stage) and are maintained in continuous log phase growth in RPM11640 medium supplemented with 5% washed human A+erythrocytes, 25 mM HEPES, […] NaHCO3, and AlbuMAXII (lipid-rich bovine serum albumin) (GIBCO, Grand Island, N.Y.) (CM). All cultures and assays are conducted at 37° C. under an atmosphere of 5% CO2 and 5% 02, with a balance of N2.
For drug sensitivity assays, tock drug solutions are prepared in 100% DMSO (dimethylsulfoxide) at 20 mM. The compound is further diluted to the appropriate concentration using complete medium RPM11640 supplemented with 15 nM cold hypoxanthine and AlbuMAXII. Assays are performed in sterile 96-well microtitre plates, each plate contains […] of parasite culture (0.5% parasitemia, 2.5% hematocrit). Each drug is tested in triplicate and parasite growth is compared to control and blank (uninfected erythrocytes) wells. After 24 h of incubation at 37° C., 3.7 Bq of [3H]hypoxanthine is added to each well. Cultures are incubated for a further 24 h before they are harvested onto glass-fiber filter mats. The radioactivity is counted using a Wallac Microbeta 1450 scintillation counter. […] The percentage inhibition is calculated from comparison of blank and control wells, and EC50 values are calculated using Prism™. Screen. The K1 line is used. The compound is diluted threefold over 12 different concentrations with an appropriate starting concentration. The EC50 is determined by a sigmoidal dose-response analysis using Prism™. For each assay, the EC50 value for the parasite line is determined against the known antimalarials chloroquine and artesunate, plus other standard compounds appropriate for the assay.
were tested in vitro against the intraerythrocytic form of the parasite Plasmodium falciparum K1 (chloroquine-resistant strain) and Plasmodium falciparum 31D7 (chloroquine-sensitive strain). The selectivity index (SI) was determined as the ration between EC50 against murine macrophages or HepG2 cells and the EC50 against P. falciparum.

For data set [4], the system named is P. berghei. Nature of the data set: Anti-malarial activity in vivo in mice inoculated with P. berghei. Conditions: 50 mg/Kg oral, 3 consecutive days.
Data set [5] relates to murine macrophages or HepG2 cells. Kind of data set: Selectivity index: EC50 against murine macrophages or HepG2 cells over EC50 against P. falciparum. In kind it is cell-based. Conditions: ratio of EC50 against murine macrophages or HepG2 cells to EC50 against P. falciparum. As to the method:
as §1

The subject of data set [6] is Plasmodium sp. Conditions: background statement, strain not stated; cited from earlier work.
Data set [7] is described as follows: Plasma pharmacokinetics after single oral administration. In kind it is in vivo, male Swiss Albino mice. How it is done: The objective of this study was to investigate the plasma pharmacokinetics of the compound CF-88 in male Swiss Albino mice following a single oral administration. Nine animals were used in this study as Group 1 (PO: 50 mg/kg). Animals were administered with solution formulation of CF-88 in 3% DMSO and RPMI medium via oral route at 50 mg/kg. The blood samples were collected from set of three mice at each time point in labeled micro centrifuge tube containing K2EDTA solution as anticoagulant at 0.25, 0.5, 1, 2, 4, 6, 8, 12 and 24 hr. Plasma samples were separated by centrifugation of whole blood and stored below −70±10° C. until bioanalysis. All samples were processed for analysis by protein precipitation using acetonitrile and analyzed with fit-for-purpose LC-MS/MS method (LLOQ=5.16 ng/mL). Pharmacokinetic parameters were calculated using the non-compartmental analysis tool of Phoenix WinNonlin® (Version 7.0).
For the preparation of the oral formulation accurately weighed 19.93 mg of compound for PO dosing was added in a labeled bottle. The volume 0.112 mL of DMSO was added and vortexed. The volume 3.617 mL of RPMI medium was added and vortexed. The final formulation (5 mg/mL) was vortexed for 2 minutes to get finely suspended formulation.
After preparation of formulations, a volume of 200 μL was aliquoted for analysis. […] Formulations were prepared freshly prior to dosing.
Blood samples (approximately 60 μL) were collected from retro-orbital plexus of three mice at 0.25, 0.5, 1, 2, 4, 6, 8, 12 and 24 hr. Samples were collected into labeled micro-tubes, containing K2EDTA solution (20% K2EDTA solution) as an anticoagulant. Plasma was immediately harvested from the blood by centrifugation at 4000 rpm for 10 min at 4±2° C. and stored below −70° C. until bioanalysis.

Where [8] appears, read: 0 hrs of treatment, compound at 10×EC50.
[9] abbreviates: 24 hrs of treatment, compound at 10×EC50 (CF89 500 nM, SP79 30 nM).
Setting [10] is: 48 hrs of treatment, compound renewed after 24 hrs, 10×EC50.
The mark [11] stands for this setting: read-out: EC50 P. f. K1, intraerythrocytic form, chloroquine-resistant strain.
The mark [12] stands for this setting: intraerythrocytic form, chloroquine-sensitive strain, read-out: EC50 P. f. 3D7.
[13] abbreviates: Plasmodium falciparum, K1, read-out: EC50 P. f. K1.
[14] abbreviates: male, Swiss Albino, mouse, in vivo, po, 50 mg/kg.
Setting [15] is: male, Swiss Albino, mouse, plasma, PO 50 mg/kg, 12 hrs after administration, read-out: plasma concentration at 12 hrs.

For `CCc1nc(N)nc(N)c1-c1ccc(Cl)cc1` [Pyrimethamine], in data set [1] (Plasmodium falciparum, 3D7, intraerythrocytic form, chloroquine-sensitive strain, read-out: EC50 P. f. 3D7), the half-maximal effective concentration (EC50) (commonly the midpoint of the concentration-response curve) came to 31 nM. For the same compound, the Survival % came to 100% in data set [2] (setting [8]), 53.52% in data set [2] (setting [9]) and 9.59% in data set [2] (setting [10]).
In the case of `CN1CC(=O)N[C@@H](CSC(c2ccccc2)(c2ccccc2)c2ccccc2)C(=O)N(C)CC(=O)N[C@@H](CSC(c2ccccc2)(c2ccccc2)c2ccccc2)C(=O)N(C)CC(=O)N[C@@H](CCC(=O)O)C1=O` [CFfs49.4, Cycle-NMe-Gly-L-Cys(Trt)-NMe-Gly-L-Cys(Trt)-NMe-Gly-L-Glu] (cyclo(C(Trt)[Sar]C(Trt)[Sar]E[Sar])), the EC50 in data set [3] (setting [11]) worked out at 0.2 nM; in data set [1] (setting [12]), 12 nM. The Days of survival in data set [4] was 23 ± 4 days. The Parasitemia is listed as 1.1 ± 0.2 in data set [4] (Day 5), 1.6 ± 0.2 in data set [4] (Day 7) and 4.8 ± 0.5 in data set [4] (Day 9). In addition, the “Parasitemia (reduction %)” value in data set [4] (Day 7) is recorded as “(46 ± 6%)”; in data set [4] (Day 9), “(50 ± 4%)”. Also, the SI in data set [5] is more than 20000.
With `COC(=O)CC[C@@H]1NC(=O)CN(C)C(=O)[C@H](CSC(c2ccccc2)(c2ccccc2)c2ccccc2)NC(=O)CN(C)C(=O)[C@H](CSC(c2ccccc2)(c2ccccc2)c2ccccc2)NC(=O)CN(C)C1=O` [CFfs49.5] (cyclo(C(Trt)[Sar]C(Trt)[Sar]E(OMe)[Sar])), the EC50 in data set [1] (setting [12]) worked out at 5.2 nM. The SI in data set [5] was more than 40000.
As to `C[C@H]1[C@H](OC(=O)CCC(=O)O)O[C@@H]2O[C@@]3(C)CC[C@H]4[C@H](C)CC[C@@H]1[C@@]24OO3` [Artesunate], the half-maximal effective concentration (EC50) in data set [6] was 5 nM; in data set [3] (setting [13]), 3 nM; in data set [1] (Plasmodium falciparum, 3D7, read-out: EC50 P. f. 3D7), 5 nM. Moreover, the figures for the Survival % in data set [2] (setting [8]), in data set [2] (setting [9]) and in data set [2] (setting [10]) were 100%, 10.01% and 8.59%, respectively.
As for `CN1CC(=O)N[C@@H](CSC(c2ccccc2)(c2ccccc2)c2ccccc2)C(=O)N(C)CC(=O)N[C@@H](CSC(c2ccccc2)(c2ccccc2)c2ccccc2)C(=O)N(C)CC(=O)N[C@@H](COC(C)(C)C)C1=O` [CF87, Cycle-NMe-Gly-L-Cys(Trt)-NMe-Gly-L-Ser(^t-Bu)-NMe-Gly-L-Cys(Trt)] (cyclo(C(Trt)[Sar]C(Trt)[Sar]S(tBu)[Sar])), in data set [1] (3D7 (chloroquine-sensitive strain)), the EC50 came to 3.8 nM. The SI in data set [5] is more than 12500.
Regarding `O=C1C(O)=C([C@H]2CC[C@H](c3ccc(Cl)cc3)CC2)C(=O)c2ccccc21` [Atovaquone], the Survival % worked out at 100% in data set [2] (setting [8]), 56.55% in data set [2] (setting [9]) and 32.02% in data set [2] (setting [10]).
In the case of `C[C@@H]1CC[C@H]2[C@@H](C)C(=O)O[C@@H]3O[C@@]4(C)CC[C@@H]1[C@]32OO4` [Artemisinine, reference compound], the EC50 in data set [6] and in data set [3] (setting [13]) was 20 nM each time.
Turning to `C[C@@H](OC(C)(C)C)[C@@H]1NC(=O)CNC(=O)[C@H](CSC(c2ccccc2)(c2ccccc2)c2ccccc2)NC(=O)CNC(=O)[C@H](CSC(c2ccccc2)(c2ccccc2)c2ccccc2)NC(=O)CN(C)C1=O` [CF90, Cycle-L-Thr(^tBu)-NMe-Gly-L-Cys(Trt)-Gly-L-Cys(Trt)-Gly] (cyclo(C(Trt)GC(Trt)GT(tBu)[Sar])), the EC50 in data set [3] (setting [11]) was determined as 0.13 nM; in data set [1] (setting [12]), 1.4 nM. In data set [5], the SI was >1 × 10^5.
As for `C[C@@H](OC(C)(C)C)[C@@H]1NC(=O)CN(C)C(=O)[C@H](CSC(c2ccccc2)(c2ccccc2)c2ccccc2)NC(=O)CNC(=O)[C@H](CSC(c2ccccc2)(c2ccccc2)c2ccccc2)NC(=O)CN(C)C1=O` [CF88, Cycle-NMe-Gly-L-Thr(^t-Bu)-NMe-Gly-L-Cys(Trt)-Gly-L-Cys(Trt)] (cyclo(C(Trt)GC(Trt)[Sar]T(tBu)[Sar])), the “clinical signs after oral administration” value in data set [7] (PO 50 mg/kg single dose) is reported as “all animals were normal without any clinical signs”. In addition, the t1/2 in data set [7] (PO 50 mg/kg, plasma, 4, 6, 8 and 12 hr time points considered (r^2 = 0.7325)) is 4.93 h. The “detected in plasma up to” value in data set [7] (PO 50 mg/kg, time after administration) was determined as 12 h. In addition, the “detection in plasma at 24 hrs” value in data set [7] (PO 50 mg/kg, LLOQ 5.16 ng/mL) is on record as “no detection”. For the same compound, in data set [7] (setting [14]), the AUCinf worked out at 390.71, the AUClast came to 314.79, the Cmax (commonly the maximum level reached in the sampled fluid or tissue) is recorded as 61.13 ng/mL and the tmax turned out to be 2 h. Also, in data set [7] (setting [15]), the level at 12 h was 10.8 ng/mL and the level at time molar at 12 h is 10 nM. In addition, in data set [3] (against P. falciparum K1), the EC90 (in general, the concentration at which the effect reaches the 90% level) was determined as 1 nM. The EC50 in data set [3] (setting [11]) stood at 0.008 nM. The EC50 in data set [1] (setting [12]) was 0.25 nM. This compound also came in with a Days of survival in data set [4] of 25 ± 7 days. This compound returned a Parasitemia in data set [4] (Day 5) of 0.9 ± 0.7. Also, in data set [4] (Day 7), the Parasitemia was 1.7 ± 0.3 and the “Parasitemia (reduction %)” value is “(46 ± 10%)”. Also, in data set [4] (Day 9), the Parasitemia was 6 ± 1 and the “Parasitemia (reduction %)” value is given as “(33 ± 10%)”. Also, the SI in data set [5] is reported as >1 × 10^6.
On to `CCN(CC)CCCC(C)Nc1ccnc2cc(Cl)ccc12` (centres unmarked) [Chloroquine, reference compound], for which the EC50 in data set [3] (setting [13]) worked out at 470 nM. In data set [4], the Days of survival is more than 30 days. The “Parasitemia (reduction %)” value in data set [4] (Day 5 (96 hrs after infection)), in data set [4] (Day 7) and in data set [4] (Day 9) was “(100%)” in each case. Further, the Parasitemia in data set [4] (Day 5), in data set [4] (Day 7) and in data set [4] (Day 9) was 0 throughout. Moreover, the Survival % in data set [2] (setting [8]) turned out to be 100%; in data set [2] (setting [9]), 14.13%; in data set [2] (setting [10]) it was 7.04%.
